From PubChem BioAssay (NCI)
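48-hour exposure; five concentrations; linearly interpolated endpoints. Here, GI50 denotes the concentration required for 50% inhibition of growth. TGI marks complete inhibition of growth.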

How the values were obtained:
Test in all cases: growth of human tumour cells (NCI), 48 h
HL-60(TB) leukemia = test system: HL-60(TB) leukemia
786-0 renal = test system: 786-0 renal
HS 578T breast = test system: HS 578T breast
LOX IMVI melanoma = test system: LOX IMVI melanoma
U251 CNS = test system: U251 CNS
M14 melanoma = test system: M14 melanoma
A498 renal = test system: A498 renal
OVCAR-5 ovarian = test system: OVCAR-5 ovarian
SF-295 CNS = test system: SF-295 CNS
HOP-62 NSCLC = test system: HOP-62 NSCLC
SF-268 CNS = test system: SF-268 CNS
HCT-116 colon = test system: HCT-116 colon
OVCAR-4 ovarian = test system: OVCAR-4 ovarian
SR leukemia = test system: SR leukemia
HT29 colon = test system: HT29 colon
HCC-2998 colon = test system: HCC-2998 colon
IGROV1 ovarian = test system: IGROV1 ovarian
MDA-MB-231 breast = test system: MDA-MB-231 breast
COLO 205 colon = test system: COLO 205 colon
NCI-H460 lung = test system: NCI-H460 lung
OVCAR-3 ovarian = test system: OVCAR-3 ovarian
SK-MEL-2 melanoma = test system: SK-MEL-2 melanoma
SNB-75 CNS = test system: SNB-75 CNS
UACC-62 melanoma = test system: UACC-62 melanoma
MCF7 breast = test system: MCF7 breast
SK-MEL-5 melanoma = test system: SK-MEL-5 melanoma
BT-549 breast = test system: BT-549 breast
OVCAR-8 ovarian = test system: OVCAR-8 ovarian
MOLT-4 leukemia = test system: MOLT-4 leukemia
TK-10 renal = test system: TK-10 renal
HCT-15 colon = test system: HCT-15 colon
KM12 colon = test system: KM12 colon
UACC-257 melanoma = test system: UACC-257 melanoma
RXF 393 renal = test system: RXF 393 renal
SK-OV-3 ovarian = test system: SK-OV-3 ovarian
ACHN renal = test system: ACHN renal
NCI-H522 lung = test system: NCI-H522 lung
EKVX NSCLC = test system: EKVX NSCLC
SK-MEL-28 melanoma = test system: SK-MEL-28 melanoma
NCI-H23 lung = test system: NCI-H23 lung
T-47D breast = test system: T-47D breast
SN12C renal = test system: SN12C renal
HOP-92 NSCLC = test system: HOP-92 NSCLC
UO-31 renal = test system: UO-31 renal
CAKI-1 renal = test system: CAKI-1 renal
NCI/ADR-RES ovarian = test system: NCI/ADR-RES ovarian
SNB-19 CNS = test system: SNB-19 CNS
MALME-3M melanoma = test system: MALME-3M melanoma
CCRF-CEM leukemia = test system: CCRF-CEM leukemia
K-562 leukemia = test system: K-562 leukemia
RPMI-8226 leukemia = test system: RPMI-8226 leukemia
A549 NSCLC = test system: A549 NSCLC
SW-620 colon = test system: SW-620 colon
PC-3 prostate = test system: PC-3 prostate
DU-145 prostate = test system: DU-145 prostate
SF-539 CNS = test system: SF-539 CNS
MDA-MB-435 = test system: MDA-MB-435
NCI-H226 lung = test system: NCI-H226 lung

## COc1ccc(OC)c(CC(=O)c2ccc(O)c(C(=O)NCCc3ccc(F)cc3)c2)c1
HL-60(TB) leukemia
  TGI: 7.29 µM
786-0 renal
  TGI: 24.5 µM
HS 578T breast
  TGI: 8.69 µM
LOX IMVI melanoma
  TGI: 27 µM
U251 CNS
  TGI: 13.7 µM
M14 melanoma
  TGI: 9.2 µM
A498 renal
  TGI: 47 µM
OVCAR-5 ovarian
  TGI: > 100 µM
SF-295 CNS
  TGI: 10.1 µM
HOP-62 NSCLC
  TGI: 5.63 µM
SF-268 CNS
  TGI: 25 µM
HCT-116 colon
  GI50: 4.05 µM
  TGI: 19.9 µM
OVCAR-4 ovarian
  TGI: 31 µM
SR leukemia
  TGI: 10 µM
HT29 colon
  TGI: 30.5 µM
HCC-2998 colon
  TGI: 13.1 µM
IGROV1 ovarian
  TGI: 18.1 µM
MDA-MB-231 breast
  TGI: 20.4 µM
COLO 205 colon
  TGI: 31.7 µM
NCI-H460 lung
  TGI: 34 µM
OVCAR-3 ovarian
  TGI: 3.17 µM
SK-MEL-2 melanoma
  TGI: 12.3 µM
SNB-75 CNS
  TGI: 6.9 µM
UACC-62 melanoma
  GI50: 4.01 µM
  TGI: 21.6 µM
MCF7 breast
  TGI: 24.6 µM
SK-MEL-5 melanoma
  TGI: 11.4 µM
BT-549 breast
  TGI: 38.5 µM
OVCAR-8 ovarian
  TGI: 21.8 µM
MOLT-4 leukemia
  TGI: 17.4 µM
TK-10 renal
  TGI: 45.8 µM
HCT-15 colon
  TGI: 17.1 µM
KM12 colon
  TGI: 13.9 µM
UACC-257 melanoma
  TGI: 44.8 µM
RXF 393 renal
  TGI: 2.9 µM
SK-OV-3 ovarian
  TGI: 9.96 µM
ACHN renal
  TGI: 56.9 µM
NCI-H522 lung
  TGI: 11.2 µM
EKVX NSCLC
  TGI: 36.2 µM
SK-MEL-28 melanoma
  TGI: > 100 µM
NCI-H23 lung
  TGI: 14.2 µM
T-47D breast
  TGI: 8.44 µM
SN12C renal
  GI50: 4.26 µM
  TGI: 19.4 µM
HOP-92 NSCLC
  TGI: 41.4 µM
UO-31 renal
  TGI: 23.4 µM
CAKI-1 renal
  TGI: 14.5 µM
NCI/ADR-RES ovarian
  TGI: 8.79 µM
SNB-19 CNS
  TGI: 52.5 µM
MALME-3M melanoma
  TGI: 6.9 µM
CCRF-CEM leukemia
  GI50: 2.4 µM
  TGI: 6.65 µM
K-562 leukemia
  TGI: > 100 µM
RPMI-8226 leukemia
  TGI: 22.9 µM
A549 NSCLC
  TGI: 37.6 µM
SW-620 colon
  TGI: > 100 µM

## Cc1c(/C=N\NC(=S)N(C)CCN(C)C(=S)N/N=C\c2c(C)n(C)n(-c3ccccc3)c2=O)c(=O)n(-c2ccccc2)n1C
786-0 renal
  TGI: > 100 µM
HS 578T breast
  TGI: > 100 µM
U251 CNS
  TGI: > 100 µM
M14 melanoma
  TGI: > 100 µM
A498 renal
  TGI: > 100 µM
OVCAR-5 ovarian
  TGI: > 100 µM
SF-295 CNS
  TGI: > 100 µM
HOP-62 NSCLC
  TGI: > 100 µM
SF-268 CNS
  TGI: > 100 µM
HCT-116 colon
  TGI: > 100 µM
OVCAR-4 ovarian
  TGI: > 100 µM
SR leukemia
  TGI: > 100 µM
HT29 colon
  TGI: > 100 µM
HCC-2998 colon
  TGI: > 100 µM
MDA-MB-231 breast
  TGI: > 100 µM
PC-3 prostate
  TGI: > 100 µM
COLO 205 colon
  TGI: > 100 µM
NCI-H460 lung
  TGI: > 100 µM
OVCAR-3 ovarian
  TGI: > 100 µM
SK-MEL-2 melanoma
  TGI: > 100 µM
DU-145 prostate
  TGI: > 100 µM
SF-539 CNS
  TGI: > 100 µM
SNB-75 CNS
  TGI: > 100 µM
UACC-62 melanoma
  TGI: > 100 µM
SK-MEL-5 melanoma
  TGI: > 100 µM
BT-549 breast
  TGI: > 100 µM
MOLT-4 leukemia
  TGI: > 100 µM
MDA-MB-435
  TGI: > 100 µM
TK-10 renal
  TGI: > 100 µM
HCT-15 colon
  TGI: > 100 µM
KM12 colon
  TGI: > 100 µM
UACC-257 melanoma
  TGI: > 100 µM
RXF 393 renal
  TGI: > 100 µM
SK-OV-3 ovarian
  TGI: > 100 µM
ACHN renal
  TGI: > 100 µM
NCI-H522 lung
  TGI: > 100 µM
EKVX NSCLC
  TGI: > 100 µM
NCI-H23 lung
  TGI: > 100 µM
NCI-H226 lung
  TGI: > 100 µM
T-47D breast
  TGI: > 100 µM
HOP-92 NSCLC
  TGI: > 100 µM
UO-31 renal
  TGI: > 100 µM
CAKI-1 renal
  TGI: > 100 µM
NCI/ADR-RES ovarian
  TGI: > 100 µM
SNB-19 CNS
  TGI: > 100 µM
MALME-3M melanoma
  TGI: > 100 µM
A549 NSCLC
  TGI: > 100 µM
SW-620 colon
  TGI: > 100 µM
